Laboratory results as given in patent publication US20230331649A1, “INHIBITORS OF PROTEIN FUCOSYLATION AND USES THEREOF” (SIMON FRASER UNIVERSITY, priority 2020, published 2023).

How the values were obtained:
[1] = system: CHO K1 cells; experiment: Cell-based fucosylation assay, fluorescein-AAL lectin staining of CHO K1 cells; parameters: species or system Chinese hamster; conditions: Cricetulus griseus, 120 h, five days with inhibitor, 3.2 nM-100 μM, AAL lectin fluorescence normalized to DMSO vehicle
Description: CHO K1 cells were grown in a T175 flask, in F12 medium supplemented with 10% […], at 37° C., 5% CO2. 350 cells were seeded in every well of a 384-well plate (Corning 4680, 45 μL final) and incubated at 37° C. overnight. Inhibitors were stored as 20 mM stock solution in DMSO. Inhibitors were diluted to the desired concentration in CHO cells culture medium and were dispensed into the wells of the plate (50 μL final well volume). An equivalent amount of DMSO (vehicle) was dispensed into control wells. Cells were incubated in the presence of inhibitors for five days. Following treatment, the culture medium was removed and cells were washed four times with 60 μL of PBS-T using a combination washer/dispenser (EL406, Biotek). 50 μL of 4% PFA in PBS-T was then dispensed into the plate and cells were incubated for 15 min at room temperature before being washed four times with 60 μL of PBS-T. Cells were subsequently incubated for 45 minutes at room temperature with 5% Bovine Serum Albumin (BSA) in PBS-T to prevent non-specific lectin binding. The BSA solution was then replaced by 50 μL of a solution of 5 μg/mL of Fluorescein-conjugated Aleuria Aurentia Lectin (AAL) (Vector Laboratories) and cells were kept at room temperature in the dark for 1 h. Negative controls were co-incubated with AAL and 100 mM fucose as a lectin antagonist. Cells were subsequently washed four times with 60 μL PBS-T. Then, 50 μL of 1 μg/mL Hoechst solution in PBS was dispensed into each well and cells were directly imaged using an ImageXpress MicroXLS high content microscope (Molecular Devices). Four sites per wells were imaged using DAPI and FITC channels (50 ms and 300 ms exposure respectively). Images were processed using MetaXpress software. Briefly, for each site, the integrated average fluorescence was quantified and normalized for the corresponding number of cells determined with nuclear staining. Results from each site were combined to provide a single value for each well. At least four independent wells were imaged for each condition providing four biological replicates. IC50 curves were plotted using GraphPad Prism. Results were normalized on the average value for vehicle wells (DMSO treated).
We assessed the potency of carbafucose and selected analogs through dose-response experiments over a 3.2 nM-100 μM range of concentrations in the cell-based assay. The cell-based fucosylation antagonist 2-deoxy-2-fluoro-L-fucose (2FFuc) was used as a control (FIGS. 1A-D).

[2] = system: Expi-CHO cells; experiment: Glycan analysis of HER2 antibody from compound-treated Expi-CHO cells (PNGaseF release, CE-LIF); type: cell-based, Chinese hamster; conditions: 0.1 mM compound added a day after transfection with HER2 antibody, harvested after 8 days, released glycans by CE-LIF; for Glycan A2 (alt name G0) (%): non-fucosylated glycan
Description: Expi-CHO cells were treated with compounds 16, 7, 9, 13, 6, 8, 14 and 15 at 0.1 mM (final conc.) a day after transfection with HER2 antibody. The transfected cells were harvested after 8 days and purified HER2 antibodies were deglycosylated using PNGaseF and the released glycans were purified and analyzed by capillary electrophoresis-laser-induced fluorescence (CE-LIF).

Structure (SMILES) | IC50 [1] | Glycan A2BG2 (alt name G2B) (%) [2] | Glycan FA2(3)G1 (alt name G1′F) (%) [2] | Glycan FA2(6)G1 (alt name G1F) (%) [2] | Glycan FA2(6)G1S1 (alt name G1FS1) (%) [2] | Glycan FA2 (alt name G0F) (%) [2] | Glycan FA2G2S1 (alt name G2FS1) (%) [2] | Glycan FA2G2S2 (alt name G2FS2) (%) [2] | Glycan A2 (alt name G0) (%) [2]
C=C[C@@H]1C[C@H](O)[C@@H](O)[C@H](O)[C@@H]1O [1-42] | 137 ± 79 µM | – | – | – | – | – | – | – | –
C[C@@H]1C[C@H](OP(=O)(O)O)[C@@H](O)[C@H](O)[C@@H]1O [2-3] | 39.5 ± 30.3 µM | – | – | – | – | – | – | – | –
C[C@@H]1OC(O)[C@@H](F)[C@H](O)[C@@H]1O (stereo partly drawn) [2FFuc, 2-deoxy-2-fluoro-L-fucose, reference compound] | 137 ± 79 µM | – | – | – | – | – | – | – | –
CC1=C[C@H](O)[C@@H](F)[C@H](O)[C@@H]1O [Compound 6] | – | 0.8% | 0.6% | 4.1% | 0.8% | 77.7% | 15.9% | 0.0% | 0.0%
CC(=O)O[C@H]1[C@H](F)[C@@H](OC(C)=O)C=C(C)[C@H]1OC(C)=O [Compound 7] | – | 0.0% | 0.0% | 3.9% | 0.0% | 79.5% | 16.6% | 0.0% | 0.0%
CC1C[C@H](O)[C@@H](F)[C@H](O)[C@@H]1O (stereo partly shown) [Compound 8] | – | 0.0% | 0.0% | 3.9% | 0.0% | 79.3% | 16.8% | 0.0% | 0.0%
CC(=O)O[C@H]1[C@H](F)[C@@H](OC(C)=O)CC(C)[C@H]1OC(C)=O (stereo partly shown) [Compound 9] | – | 0.8% | 0.0% | 3.9% | 0.0% | 78.9% | 16.4% | 0.0% | 0.0%
CC1=C[C@H](O)[C@@H](O)[C@H](O)[C@@H]1O [Compound 13] | – | 0.8% | 0.0% | 3.9% | 0.9% | 77.3% | 17.0% | 0.0% | 0.0%
CC1C[C@H](O)[C@@H](O)[C@H](O)[C@@H]1O (stereo partly shown) [Compound 15] | – | 0.0% | 0.0% | 0.0% | 17.2% | 8.8% | 0.0% | 3.3% | 70.6%
C[C@@H]1C[C@H](O)[C@@H](O)[C@H](O)[C@@H]1O [carbafucose] | 16.1 ± 7.7 µM | – | – | – | – | – | – | – | –
